From patent EP0641569A1, “ANTIPRURITIC” (ONO PHARMACEUTICAL CO., LTD., priority 1992, dated 1993)

Columns and labels:
[1] = Acute toxicity in mice; settings: Jcl-ICR, mouse, in vivo, read-out: LD₅₀
Protocol: (§1) Compound A was orally or subcutaneously administered to each ten male and female 6-weeks aged Jcl-ICR mice and Jcl-SD rats, respectively per group. Two groups of Compound A (1000 and 2000 mg/kg) were used by suspending into 0.5% carboxymethyl cellulose (CMC) aqueous solution at the concentration of 100 mg/ml.

[2] = tested on: patients in hemodialysis; experiment: Treatment for pruritus cutanea in hemodialysis (improvement score of itching and rash); format: in vivo, human; settings: for improvement in itching: four patients in hemodialysis with severe itching, no effect with other agents, hydrate
Protocol: 8-[p-(4-phenylbutoxy)benzoyl]amino-2-(tetrazol-5-yl)-4-oxo-4H-1-benzopyran·1/2 hydrate (abbreviated as "Compound A" hereafter) were administered at the dose of 225 mg or 450 mg per day to four patients in hemodialysis (dialyzed for 3 to 11 years) who have severe itching and show no effect with other agents [no effect even with antihistamine, azerastin (anti-allergy agent already on the market) and steroid ointment]. The evaluation was carried out by improvement score of subjective symptom according to "The Standard of degree of Itching" and of rash (judged by slide).

[3] = Acute toxicity in rats; settings: Jcl-SD, rat, in vivo, read-out: LD₅₀
Protocol: as §1

[4] = 225 mg or 450 mg per day, four patients in hemodialysis

SMILES	LD50 ([1]; po, orally, female)	LD50 ([1]; po, orally, male)	LD50 ([1]; sc, subcutaneously, female)	LD50 ([1]; sc, subcutaneously, male)	side effect [2, 4]	subjective symptom and objective symptom (rash), daytime and nighttime [2, 4]	improvement in itching ([2]; 225 mg or 450 mg per day)	improvement in itching ([2]; 225 mg or 450 mg per day, listed as 8-[p-(4-phenylbutoxy)benzoyl]amino-2-(tetrazol-5-yl)-4-oxo-4H-1-benzopyran semih)	LD50 ([3]; po, orally, female)	LD50 ([3]; po, orally, male)	LD50 ([3]; sc, subcutaneously, female)	LD50 ([3]; sc, subcutaneously, male)	effect on itching ([2]; earlier treatment of the same four patients with other agents)
O=C(Nc1cccc2c(=O)cc(-c3nnn[nH]3)oc12)c1ccc(OCCCCc2ccccc2)cc1 [Compound A, 8-[p-(4-phenylbutoxy)benzoyl]amino-2-(tetrazol-5-yl)-4-oxo-4H-1-benzopyran·1/2 hydrate]	> 2000 mg/kg	> 2000 mg/kg	> 2000 mg/kg	> 2000 mg/kg	no side effect	Improvement was shown	became better	Remarkable improvement	> 2000 mg/kg	> 2000 mg/kg	> 2000 mg/kg	> 2000 mg/kg	–
CN1CCCC(n2nc(Cc3ccc(Cl)cc3)c3ccccc3c2=O)CC1 (stereo not shown) [azerastin, reference compound]	–	–	–	–	–	–	–	–	–	–	–	–	no effect
